Results on 2 molecules are retold here after ChEMBL document CHEMBL1156457, “Mechanisms for picrotoxinin and picrotin blocks of alpha2 homomeric glycine receptors” (J Biol Chem, 2007).

The source made the active and inactive calls. No cut-off for these calls is given here.

The target of assay [1] is T1, Glycine receptor subunit alpha-2 (Rattus norvegicus) (UniProt P22771).
T1 sequence (whole entry): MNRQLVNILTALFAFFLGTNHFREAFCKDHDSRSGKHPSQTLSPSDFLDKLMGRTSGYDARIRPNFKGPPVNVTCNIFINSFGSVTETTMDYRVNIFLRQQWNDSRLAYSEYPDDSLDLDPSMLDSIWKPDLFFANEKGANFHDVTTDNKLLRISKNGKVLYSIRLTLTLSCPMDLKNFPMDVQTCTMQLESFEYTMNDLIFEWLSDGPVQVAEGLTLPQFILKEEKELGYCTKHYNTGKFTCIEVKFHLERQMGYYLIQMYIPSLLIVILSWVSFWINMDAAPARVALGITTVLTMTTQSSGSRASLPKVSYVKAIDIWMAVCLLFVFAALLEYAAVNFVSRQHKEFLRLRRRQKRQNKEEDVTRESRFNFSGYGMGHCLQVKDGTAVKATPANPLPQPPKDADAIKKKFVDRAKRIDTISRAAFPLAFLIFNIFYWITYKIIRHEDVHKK
Kind of assay: (§1) Inhibition of rat alpha2 homomeric glycine receptor expressed in CHO cells assessed as inhibition of 300 uM glycine-elicited current at 3 uM at +50 mV voltage by outside patch clamp technique. In kind it is cell-based.

For assay [2], the target named is T1, Glycine receptor subunit alpha-2 (Rattus norvegicus). Kind of assay: Inhibition of rat alpha2 homomeric glycine receptor expressed in CHO cells assessed as inhibition of 300 uM glycine-elicited current at 3 uM by outside patch clamp technique. In kind it is cell-based.
Assay [3] shares this target. As to the kind of experiment: Effect on rat alpha2 homomeric glycine receptor expressed in CHO cells assessed as shortened single receptor burst opening in response to glycine-pulse at 10 uM by outside patch clamp technique. In kind it is cell-based.
The target is the same in assay [4]. Described as §1. In kind it is cell-based. The source holds these as a separate data set.
Assay [5] has the same target. Kind of assay: Effect on rat alpha2 homomeric glycine receptor expressed in CHO cells assessed as decrease in channel mean open time by outside patch clamp technique relative to control. In kind it is cell-based. A general note: In patch-clamp work, channel activity is measured electrically.
Assay [6] shares this target. As to the kind of experiment: Effect on rat alpha2 homomeric glycine receptor expressed in CHO cells assessed as decrease in glycine-evoked recovery time constant at 10 uM by outside patch clamp technique. In kind it is cell-based.
For assay [7] the target is unchanged. Kind of assay: Effect on rat alpha2 homomeric glycine receptor expressed in CHO cells assessed as shortened deactivation phase of glycine-evoked response at 10 uM administered before glycine challenge by outside patch clamp technique. In kind it is cell-based.
For assay [8] the target is unchanged. Kind of assay: Inhibition of rat alpha2 homomeric glycine receptor expressed in CHO cells assessed as inhibition of deactivation time constant by outside patch clamp technique. In kind it is cell-based.
For assay [9] the target is unchanged. As to the kind of experiment: Effect on rat alpha2 homomeric glycine receptor expressed in CHO cells assessed as glycine-evoked response at 10 uM administered before glycine challenge by outside patch clamp technique. In kind it is cell-based.
Assay [10] shares this target. Kind of assay: Inhibition of rat alpha2 homomeric glycine receptor expressed in CHO cells assessed as inhibition of 300 uM glycine-elicited current at 10 uM by outside patch clamp technique. In kind it is cell-based.
Assay [11] deals with T2, Glycine receptor subunit alpha-2 (Rattus norvegicus, UniProt P22771).
T2 sequence (P22771 whole entry): T1 sequence (whole entry)
As to the kind of experiment: Inhibition of rat alpha2 homomeric glycine receptor expressed in CHO cells assessed as inhibition of 300 uM glycine-elicited current by outside patch clamp technique. In kind it is cell-based.

The target in assay [12] is T1, Glycine receptor subunit alpha-2 (Rattus norvegicus). As to the kind of experiment: Effect on rat alpha2 homomeric glycine receptor expressed in CHO cells assessed as change in relative area of rising time constant of glycine response at 10 uM by outside patch clamp technique. In kind it is cell-based.
Assay [13] has the same target. As to the kind of experiment: Effect on rat alpha2 homomeric glycine receptor expressed in CHO cells assessed as decrease in channel mean open time at 10 uM by outside patch clamp technique relative to control. In kind it is cell-based.
Assay [14] has the same target. Kind of assay: Inhibition of rat alpha2 homomeric glycine receptor expressed in CHO cells assessed as inhibition of 30 mM glycine-elicited current at 10 uM by outside patch clamp technique.
Assay [15] has the same target. As to the kind of experiment: Effect on rat alpha2 homomeric glycine receptor expressed in CHO cells assessed as change in rising time constant of glycine response at 10 uM by outside patch clamp technique. In kind it is cell-based.
The target is the same in assay [16]. Kind of assay: Effect on rat alpha2 homomeric glycine receptor expressed in CHO cells assessed as decrease in activation phase of glycine response at 10 uM by outside patch clamp technique. In kind it is cell-based.
Assay [17] shares this target. As to the kind of experiment: Effect on rat alpha2 homomeric glycine receptor expressed in CHO cells assessed as decrease in activation phase of glycine response at 30 uM by outside patch clamp technique. In kind it is cell-based.
For assay [18] the target is unchanged. Kind of assay: Effect on rat alpha2 homomeric glycine receptor expressed in CHO cells assessed as decrease in channel mean open time at 30 uM by outside patch clamp technique relative to control. In kind it is cell-based.
Assay [19] shares this target. As to the kind of experiment: Effect on rat alpha2 homomeric glycine receptor expressed in CHO cells assessed as shortened deactivation phase of glycine-evoked response at 100 uM administered before glycine challenge by outside patch clamp technique. In kind it is cell-based.
Assay [20] has the same target. Kind of assay: Inhibition of rat alpha2 homomeric glycine receptor expressed in CHO cells assessed as inhibition of 300 uM glycine-elicited current at 100 uM at +50 mV voltage by outside patch clamp technique. In kind it is cell-based.
For assay [21] the target is unchanged. As to the kind of experiment: Effect on rat alpha2 homomeric glycine receptor expressed in CHO cells assessed as shortened single receptor burst opening in response to glycine-pulse at 30 uM by outside patch clamp technique. In kind it is cell-based.
The target is the same in assay [22]. Kind of assay: Effect on rat alpha2 homomeric glycine receptor expressed in CHO cells assessed as change in relative area of rising time constant of glycine response at 300 uM by outside patch clamp technique. In kind it is cell-based.
The target is the same in assay [23]. As to the kind of experiment: Effect on rat alpha2 homomeric glycine receptor expressed in CHO cells assessed as change in rising time constant of glycine response at 300 uM by outside patch clamp technique. In kind it is cell-based.
The target is the same in assay [24]. Kind of assay: Inhibition of rat alpha2 homomeric glycine receptor expressed in CHO cells assessed as inhibition of 300 uM glycine-elicited current at 300 uM by outside patch clamp technique.
For assay [25] the target is unchanged. Kind of assay: Effect on rat alpha2 homomeric glycine receptor expressed in CHO cells assessed as glycine-evoked response at 100 uM administered before glycine challenge by outside patch clamp technique. In kind it is cell-based.
Assay [26] shares this target. As to the kind of experiment: Inhibition of rat alpha2 homomeric glycine receptor expressed in CHO cells assessed as inhibition of 30 mM glycine-elicited current at 300 uM by outside patch clamp technique.
Assay [27] shares this target. Kind of assay: Inhibition of rat alpha2 homomeric glycine receptor expressed in CHO cells assessed as inhibition of 300 uM glycine-elicited current at 100 uM at -50 mV voltage by outside patch clamp technique. In kind it is cell-based.
Assay [28] has the same target. Kind of assay: Effect on rat alpha2 homomeric glycine receptor expressed in CHO cells assessed as flickering of channel in response to glycine-pulse at 30 uM by outside patch clamp technique. In kind it is cell-based.

Consider `C=C(C)[C@@H]1[C@H]2OC(=O)[C@@H]1[C@]1(O)C[C@H]3O[C@]34C(=O)O[C@H]2[C@]14C` [PICROTOXININ], for which the result in assay [1], in assay [3], in [4], in [7], in assay [9] and in assay [16] was Active. Moreover, the inhibition (commonly the relative decrease from the control value, in per cent) in assay [2] worked out at 50%; in assay [10], 78.9%; in [14] it was 47.4%. For the same molecule, the Activity entry in [5] was “Dose-dependent effect”; in assay [6], 17.6 ms; in [8], “Dose-dependent effect”; in [12], 19%; in [13], 9.3 ms; in assay [15], 81%. The IC50 – broadly, the concentration that inhibits the measured activity by half – in assay [11] is 2.4 µM.
For `CC(C)(O)[C@@H]1[C@H]2OC(=O)[C@@H]1[C@]1(O)C[C@H]3O[C@]34C(=O)O[C@H]2[C@]14C` [PICROTIN], the result in [17], in assay [19], in assay [20], in assay [21], in [25] and in [27] was Active. In addition, in assay [28], the outcome was Active. Further, the Activity is 2.9 ms in assay [18]; 8.9% in assay [22]; “Dose-dependent effect” in [5]; 91.1% in [23]; “Dose-dependent effect” in assay [8]. Moreover, the inhibition in assay [2] was 3.4%; in assay [24], 63.7%; in assay [26], 36.3%. The IC50 in [11] is 117 µM.
